According to patent publication US10376481B2, “Compounds and methods for inhibiting NHE-mediated antiport in the treatment of disorders associated with fluid retention or salt overload and gastrointestinal tract disorders” (ARDELYX, INC, priority 2012, dated 2019):

Key:
[1] = test system: absorption of sodium from the intestinal lumen; assay: Inhibition of intestinal sodium absorption: rat urinary sodium and fecal form 16 h post-dose; assay type: in vivo, Sprague-Dawley rats; conditions: oral gavage 10 mg/kg; for response vs control in vivo at 10 mg/kg: urine 16 h post-dose, read-out: uNa Result, uNa (% of vehicle); for FFS (fecal form score): 16 h post-dose, scale 1-5, group average
Method in brief: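 Eight-week-old Sprague-Dawley rats (n=6) dosed by oral gavage with compound or water vehicle, then kept in metabolic cages with chow and water ad libitum. At 16 h post-dose, urinary sodium measured by ion chromatography and expressed as percent of vehicle mean; fecal form scored 1–5 and averaged over two observations.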

human NHE3 = biological target: T1, human NHE3 (Homo sapiens, UniProt P48764); assay: Cell-based assay of NHE-3 activity (persistent inhibition), human; conditions: PS120 fibroblasts stably expressing human NHE3, 60 min incubation then washout; for IC50: read-out: pIC50 (human Persistence assay) (converted)
T1 sequence (P48764 26-834): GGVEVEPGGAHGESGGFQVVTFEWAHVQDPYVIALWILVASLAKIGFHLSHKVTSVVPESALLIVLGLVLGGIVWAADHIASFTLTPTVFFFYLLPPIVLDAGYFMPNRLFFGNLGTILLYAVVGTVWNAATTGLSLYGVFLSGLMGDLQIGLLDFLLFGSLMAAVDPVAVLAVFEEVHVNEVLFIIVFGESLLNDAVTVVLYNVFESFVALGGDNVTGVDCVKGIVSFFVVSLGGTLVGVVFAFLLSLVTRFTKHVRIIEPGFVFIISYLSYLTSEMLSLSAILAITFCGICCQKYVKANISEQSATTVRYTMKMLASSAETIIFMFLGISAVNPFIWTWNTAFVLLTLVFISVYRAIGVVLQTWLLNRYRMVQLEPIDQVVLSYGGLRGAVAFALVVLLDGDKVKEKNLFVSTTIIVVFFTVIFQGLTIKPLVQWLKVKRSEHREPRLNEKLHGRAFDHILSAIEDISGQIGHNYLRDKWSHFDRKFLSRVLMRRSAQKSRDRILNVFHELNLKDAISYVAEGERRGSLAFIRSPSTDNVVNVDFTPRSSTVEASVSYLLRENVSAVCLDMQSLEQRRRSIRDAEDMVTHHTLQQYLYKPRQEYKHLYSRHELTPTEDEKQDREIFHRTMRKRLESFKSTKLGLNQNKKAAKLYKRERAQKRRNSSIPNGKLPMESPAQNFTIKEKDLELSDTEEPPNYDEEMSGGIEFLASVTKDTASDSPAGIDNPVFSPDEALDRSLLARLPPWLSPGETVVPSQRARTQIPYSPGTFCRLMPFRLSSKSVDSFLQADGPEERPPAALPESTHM
Procedure: The ability of compounds to inhibit human and rat NHE-3-mediated Na^+-dependent H^+ antiport after application and washout was measured using a modification of the pH sensitive dye method described above. PS120 fibroblasts stably expressing human NHE3 were obtained from Mark Donowitz (Baltimore, Md.). Opossum kidney (OK) cells were obtained from the ATCC and propagated per their instructions. The rat NHE-3 gene was introduced into OK cells via electroporation, and cells were seeded into 96 well plates and grown overnight. Medium was aspirated from the wells, cells were washed once with NaCl-HEPES buffer (100 mM NaCl, 50 mM HEPES, 10 mM glucose, 5 mM KCl, 2 mM CaCl2, 1 mM MgCl2, pH 7.4), then overlayed with NaCl-HEPES buffer containing 0-30 μM test compound. After a 60 min incubation at room temperature, the test drug containing buffer was aspirated from the cells. Following aspiration, cells were washed once with NaCl-HEPES buffer without drug, then incubated for 30 min at 37° C. with NH4Cl-HEPES buffer (20 mM NH4Cl, 80 mM NaCl, 50 mM HEPES, 5 mM KCl, 2 mM CaCl2, 1 mM MgCl2, pH 7.4) containing 5 μM BCECF-AM. Cells were washed once with Ammonium free, Na^+-free HEPES (100 mM choline, 50 mM HEPES, 10 mM glucose, 5 mM KCl, 2 mM CaCl2, 1 mM MgCl2, pH 7.4) and incubated in the same buffer for 10 minutes at room temperature to lower intracellular pH. NHE-3-mediated recovery of neutral intracellular pH was initiated (10 min after compound washout) by addition of Na-HEPES buffer. […] Changes in intracellular pH were monitored using a FLIPR Tetra® (Molecular Devices, Sunnyvale, Calif.) by excitation at λex 439 to 505 nm, and measuring BCECF fluorescence at λem 538 nm. The initial rate of the fluorescence ratio change was used as a measure of NHE-mediated Na^+/H^+ activity, and reported as the change in fluorescence ratio per minute. Initial rates were plotted as the average 2 or more replicates, and pIC50 values were estimated using GraphPad Prism.

| % inhibition (human Persistence assay) (human NHE3) | IC50 (human NHE3) [nM] | Compound | response vs control in vivo at 10 mg/kg [1] [%] | FFS (fecal form score) [1] |
| --- | --- | --- | --- | --- |
| A (NHE3 <40%) | > 1000 | O=C(NCCCCNC(=O)NCCOCCOCCNC(=O)Nc1cccc(O[C@H]2c3ccccc3C[C@@H]2N2CCCCC2)c1)NCCOCCOCCNC(=O)Nc1cccc(O[C@H]2c3ccccc3C[C@@H]2N2CCCCC2)c1 [Example 13, 1-{2-[2-(2-{[(3-{[(1S,2S)-2-(piperidin-1-yl)-2,3-dihydro-1H-inden-1-yl]oxy}phenyl)carbamoyl]amino}ethoxy)ethoxy]ethyl}-3-{4-[({2-[2-(2-{[(3-{[(1S,2S)-2-(piperidin-1-yl)-2,3-dihydro-1H-inden-1-yl]oxy}phenyl)carbamoyl]amino}ethoxy)ethoxy]ethyl}carbamoyl)amino]butyl}urea] | > 75 |  |
| C (>70%) | < 100 | CN(C)[C@H]1Cc2c(Cl)cc(Cl)cc2[C@@H]1Oc1ccc(S(=O)(=O)NCCOCCOCCNC(=O)NCCCCNC(=O)NCCOCCOCCNS(=O)(=O)c2ccc(O[C@H]3c4cc(Cl)cc(Cl)c4C[C@@H]3N(C)C)cc2)cc1 [Example 1, (S,S)—N,N′-(10,17-dioxo-3,6,21,24-tetraoxa-9,11,16,18-tetraazahexacosane-1,26-diyl)bis(4-((1S,2S)-4,6-dichloro-2-(dimethylamino)-2,3-dihydro-1H-inden-1-yloxy)benzenesulfonamide)] | < 35 | 1 |
| B (40-70%) | > 1000 | O=C(NCCCCNC(=O)NCCOCCOCCOCCNS(=O)(=O)c1ccc(O[C@H]2c3ccccc3C[C@@H]2N2CCCCC2)cc1)NCCOCCOCCOCCNS(=O)(=O)c1ccc(O[C@H]2c3ccccc3C[C@@H]2N2CCCCC2)cc1 [Example 16] | < 35 |  |
| A (NHE3 <40%) | > 1000 | CN(C)[C@H]1Cc2ccc(F)cc2[C@@H]1Oc1ccc(S(=O)(=O)NCCOCCOCCNC(=O)NCCCCNC(=O)NCCOCCOCCNS(=O)(=O)c2ccc(O[C@H]3c4cc(F)ccc4C[C@@H]3N(C)C)cc2)cc1 [Example 22] | > 75 |  |
| C (>70%) | > 1000 | O=C(NCCCCNC(=O)NCCOCCOCCNS(=O)(=O)c1ccc(O[C@H]2c3ccccc3C[C@@H]2N2CCCCC2)cc1)NCCOCCOCCNS(=O)(=O)c1ccc(O[C@H]2c3ccccc3C[C@@H]2N2CCCCC2)cc1 [Example 14] | 35 to 75 |  |
| B (40-70%) | < 100 | O=C(NCCCCNC(=O)NCCOCCOCCNS(=O)(=O)c1ccc(O[C@H]2c3cc(Cl)cc(F)c3C[C@@H]2N2CC[C@@H](O)C2)cc1)NCCOCCOCCNS(=O)(=O)c1ccc(O[C@H]2c3cc(Cl)cc(F)c3C[C@@H]2N2CC[C@@H](O)C2)cc1 [Example 4, (S,S,R)—N,N′-(10,17-dioxo-3,6,21,24-tetraoxa-9,11,16,18-tetraazahexacosane-1,26-diyl)bis(4-((1S,2S)-6-chloro-4-fluoro-2-((R)-3-hydroxypyrrolidin-1-yl)-2,3-dihydro-1H-inden-1-yloxy)benzenesulfonamide)] | > 75 | 1 |
